Test [1] relates to human iPSC-derived microglia (WT and TREM2 KO). Nature of the test: In vitro lipid storage assay, lipidomics by LC/MS, iPSC microglia treated with myelin. The settings on record: myelin 25 ug/mL 48 h, LXR agonist 10 uM; for cholesteryl ester (CE) accumulation: WT and TREM2 KO iPSC microglia. In kind it is cell-based. The procedure:
Lipid analyses were performed by liquid chromatography (Shimadzu Nexera X2 system, Shimadzu Scientific Instrument, Columbia, Md., USA) coupled to electrospray mass spectrometry (QTRAP 6500+, Sciex, Framingham, Mass., USA). For each analysis, 5 μL of sample was injected on a BEH C18 1.7 μm, 2.1×100 mm column (Waters Corporation, Milford, Mass., USA) using a flow rate of 0.25 mL/min at 55° C. For positive ionization mode, mobile phase A consisted of 60:40 acetonitrile/water (v/v) with 10 mM ammonium formate+0.1% formic acid; mobile phase B consisted of 90:10 isopropyl alcohol/acetonitrile (v/v) with 10 mM ammonium formate+0.1% formic acid. For negative ionization mode, mobile phase A consisted of 60:40 acetonitrile/water (v/v) with 10 mM ammonium acetate; mobile phase B consisted of 90:10 isopropyl alcohol/acetonitrile (v/v) with 10 mM ammonium acetate. The gradient was programmed as follows: 0.0-8.0 min from 45% B to 99% B, 8.0-9.0 min at 99% B, 9.0-9.1 min to 45% B, and 9.1-10.0 min at 45% B. Electrospray ionization was performed in either positive or negative ion mode applying the following settings: curtain gas at 30; collision gas was set at medium; ion spray voltage at 5500 (positive mode) or 4500 (negative mode); temperature at 250° C. (positive mode) or 600° C. (negative mode); ion source Gas 1 at 50; ion source Gas 2 at 60. Data acquisition was performed using Analyst 1.6.3 (Sciex) in multiple reaction monitoring mode (MRM), with the following parameters: dwell time (msec) and collision energy (CE) for each species reported in Table 2 (positive mode) or Table 3 (negative mode); declustering potential (DP) at 80; entrance potential (EP) at 10 (positive mode) or −10 (negative mode); and collision cell exit potential (CXP) at 12.5 (positive mode) or −12.5 (negative mode). Lipids were identified based on their retention times and MRM properties of commercially available reference standards (Avanti Polar Lipids, Birmingham, Ala., USA). Quantification was performed using MultiQuant 3.02 (Sciex). Metabolites were normalized to either total protein amount or cell number. […]

The target in test [2] is T1, TREM2 (Homo sapiens, UniProt Q9NZC2). Nature of the test: pSYK AlphaLISA in TREM2/DAP12-expressing stable HEK293 cells. It is filed as cell-based. Further details: expressed in transfected cells. As to conditions: for binding to and signaling via TREM2 (overall conclusion): conclusion from pSYK and SPR studies; for pSYK levels: liposomes 30% test lipid/70% PC, or oxLDL, vs DAP12-only cells and buffer control. On the procedure: (§1) 70 molar percent DOPC (1,2-dioleoyl-sn-glycero-3-phosphocholine, Avanti Polar Lipids) and 30 molar percent of one test lipid were combined in chloroform in a glass vial and dried under a stream of N2 gas for 1-2h, or until completely dry. Test lipids included sulfatide (Avanti), POPS (Avanti), SM (Avanti), PI (Avanti), GalCer (Avanti), PE (Echelon Biosciences), and free cholesterol (Echelon Biosciences). The lipid mixture was re-suspended in HBSS (1-2 mg/mL final lipid concentration) and vortexed for 2-3 min. Subsequently, the lipid suspension was bath sonicated for 10 minutes. For surface plasmon resonance experiments, liposomes were extruded 10 times using an Avanti mini-extruder constructed with one 100 nm pore size membrane to form small unilamellar vesicles.
T1 sequence (Q9NZC2 19-230): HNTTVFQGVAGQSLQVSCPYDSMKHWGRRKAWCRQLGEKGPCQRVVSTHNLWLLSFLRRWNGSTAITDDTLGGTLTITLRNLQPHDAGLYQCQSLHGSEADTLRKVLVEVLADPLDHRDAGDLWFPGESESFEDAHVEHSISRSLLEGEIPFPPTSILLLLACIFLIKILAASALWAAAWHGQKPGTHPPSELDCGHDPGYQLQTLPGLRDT
T1 sequence (O43914 22-113 partner): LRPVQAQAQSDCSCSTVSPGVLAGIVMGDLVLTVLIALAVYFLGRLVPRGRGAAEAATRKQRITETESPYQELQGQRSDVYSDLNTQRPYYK
HEK293 cells were transfected with a pBudCE4.1 Mammalian Expression Vector (ThermoFisher) expressing wildtype human TREM2 and DAP12, and DAP12 alone. Stable expressing clones were selected and the cell surface TREM2 expression was evaluated by flow cytometry with APC-conjugated rat-anti-human/mouse-TREM2 monoclonal (R&D MAB17291). The highest wild type TREM2 expressing clone was selected for expansion. The clones stably expressing DAP12 were analyzed by Western blot.
(§2) Activation of TREM2-dependent pSYK signaling was measured using a commercial AlphaLISA assay (PerkinElmer). HEK293 cells: Two days before the experiment, HEK293 cells stably overexpressing TREM2 and DAP12 were plated at 40,000 cells/well on 96 well poly-D-lysine-coated plate. Differentiated human macrophage and BMDM were plated at 100,000 cells/well on tissue-culture treated 96-well plates. Cells were washed once with HBSS, then 50 μL of liposome mixture was added per well. For competition experiments, hTREM2-ECD or TREM1-his (Novoprotein Scientific) was incubated with liposomes for 1 hour at room temperature before adding to cells. 5 μg/mL human-specific mouse anti-TREM2 (Abnova) or 15 μg/mL mouse-specific sheep anti-TREM2 (R&D Systems) was added to each experiment as a positive control with side-by-side isotype controls, 5 μg/mL mouse IgG3 (R&D Systems) and 15 μg/mL polyclonal sheep IgG (R&D Systems), respectively. The cell plate was then transferred to a 37° C. incubator for 5 minutes. The liposome solution was discarded and 40 uL lysis buffer (Cell Signaling Technologies, CST). Lysate was incubated at 4 C for 30 min, then either frozen at −80 C or immediately carried forward to the alpha-LISA assay. Lysates were assayed using the standard protocol for the PerkinElmer pSYK AlphaLISA kit. 10 μL of lysate/well was transferred to a white opaque 384 well Optiplate (PerkinElmer). 5 μL of Acceptor Mix (containing the working solution of acceptor beads) was added per well followed by sealing of plates with foil seals and incubation 1 hour at room temperature. 5 μL of Donor Mix (containing the working solution of donor beads) was added to each well under reduced light conditions. Plates were again sealed and incubated 1 hour at room temperature. Plates were read using AlphaLISA settings on a PerkinElmer EnVision plate reader.
Background: Bead proximity is the source of the signal in Alpha formats.

In test [3] the target is T1, TREM2. Nature of the test: pSYK AlphaLISA in human macrophages. Further details: a system with endogenous expression of TREM2/DAP12; endogenous in cells; host or cells: macrophages differentiated from human peripheral blood monocytes (2-5 donors). The settings on record: for pSYK levels, titration: liposome or oxLDL titration. In kind it is cell-based. The procedure:
as §1
as §2, with “Lysates were assayed using the standard protocol for the PerkinElmer pSYK AlphaLISA kit. 10 μL of lysate/well was transferred to a white opaque 384 well Optiplate (PerkinElmer). 5 μL of Acceptor Mix (containing the working solution of acceptor beads) was added per well followed by sealing of plates with foil seals and incubation 1 hour at room temperature. 5 μL of Donor Mix (containing the working solution of donor beads) was added to each well under reduced light conditions. Plates were again sealed and incubated 1 hour at room temperature.” left out, “reader. […]” for “reader.”

Test [4] deals with T2, hTREM2 (Homo sapiens, UniProt Q9NZC2).
T2 construct: The ecto domain (residues 19-172) of TREM2 was sub cloned in the pRK vector; secretion signal from mouse Ig kappa chain V-III (amino acids 1-20) (N); made in house; host or cells: Expi293F cells (secreted, purified from the media by Ni-NTA and SEC)
T2 sequence (Q9NZC2 19-172): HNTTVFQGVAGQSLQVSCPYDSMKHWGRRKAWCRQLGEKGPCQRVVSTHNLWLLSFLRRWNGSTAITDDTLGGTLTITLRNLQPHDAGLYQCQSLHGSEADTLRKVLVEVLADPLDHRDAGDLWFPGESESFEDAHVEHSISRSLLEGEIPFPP
Nature of the test: Lipid binding analysis using surface plasmon resonance, hTREM2 ECD. As to conditions: for Response Units at the highest analyte concentration: 30% test lipid/70% PC liposomes. The procedure:
as §1
The ecto domain (residues 19-172) of TREM2 was sub cloned in the pRK vector with the secretion signal from mouse Ig kappa chain V-III, amino acids 1-20 at the N-terminal region and a 6×-His tag at the C-terminal region. Expi293F™ cells were transfected using the Expi293™ M Expression System Kit according to the manufacturer's instructions and the media supernatant was harvested 96 hr post transfection. Harvested media was supplemented with 1M imidazole pH 8.0 to a final concentration 10 mM, filtered, and loaded on to HisPur™ Ni-NTA Resin equilibrated with load buffer (20 mM Tris pH 8.0, 150 mM NaCl and 10 mM Imidazole). Nonspecifically bound proteins were washed with load buffer supplemented with 50 and 100 mM imidazole and TREM2 ecto domain was eluted with 20 mM Tris pH 8.0, 150 mM NaCl and 200 mM Imidazole. […] Elute fractions were analyzed by SDS PAGE and further characterized by analytical size exclusion chromatography and the intact protein mass determination.
The binding analysis was performed using Series S Sensor chip L1 and Biacore T200 instrument (GE Healthcare) at 25° C. […] Recombinant hTREM2-ECD or hTREM2-R74H-ECD proteins were diluted in PBS (0, 0.19, 0.56, 1.7, 5, and 15 μM) and injected over both flow cells for 60 seconds at 30 μl/min, and dissociation was monitored for additional 2 minutes. […]
(In general: Surface plasmon resonance follows binding to a sensor surface in real time, without labels.)

The target of test [5] is T3, hTREM2 R47H (Homo sapiens, UniProt Q9NZC2, R47H).
T3 construct: The ecto domain (residues 19-172) of TREM2 was sub cloned in the pRK vector; secretion signal from mouse Ig kappa chain V-III (amino acids 1-20) (N); made in house; host or cells: Expi293F cells (secreted, purified from the media by Ni-NTA and SEC)
T3 sequence (Q9NZC2 19-172 R47H): T2 sequence (Q9NZC2 19-172) with R29H
Nature of the test: Lipid binding analysis using surface plasmon resonance, hTREM2 R47H ECD. The settings on record: for Response Units at the highest analyte concentration: 30% test lipid/70% PC liposomes; for Kd: 30% test lipid/70% PC liposomes on L1 chip, 25° C., steady-state; for faster off-rate of R47H variant vs hTREM2: SPR kinetic analysis. The procedure:
as §1
The ecto domain (residues 19-172) of TREM2 was sub cloned in the pRK vector with the secretion signal from mouse Ig kappa chain V-III, amino acids 1-20 at the N-terminal region and a 6×-His tag at the C-terminal region. Expi293F™ cells were transfected using the Expi293™ M Expression System Kit according to the manufacturer's instructions and the media supernatant was harvested 96 hr post transfection. Harvested media was supplemented with 1M imidazole pH 8.0 to a final concentration 10 mM, filtered, and loaded on to HisPur™ Ni-NTA Resin equilibrated with load buffer (20 mM Tris pH 8.0, 150 mM NaCl and 10 mM Imidazole). Nonspecifically bound proteins were washed with load buffer supplemented with 50 and 100 mM imidazole and TREM2 ecto domain was eluted with 20 mM Tris pH 8.0, 150 mM NaCl and 200 mM Imidazole. Eluted protein was pooled and subjected to size exclusion chromatography onto a HiLoad Superdex 75 16/600 column using 1×PBS as the running buffer. Elute fractions were analyzed by SDS PAGE and further characterized by analytical size exclusion chromatography and the intact protein mass determination.
The binding analysis was performed using Series S Sensor chip L1 and Biacore T200 instrument (GE Healthcare) at 25° C. Before coating with lipids, the sensor surfaces were washed with 1 minute injection of 40 μM 3-[(3cholamidopropyl)dimethylammonio]-1-propanesulfonate (CHAPS) and 40 uM of 0-octylglucoside at a flow rate of 30 μl/min. Residual detergent on the sensor surfaces was washed away by 30 second injection of 30% ethanol. 1 mg/ml Sulfatide/DOPC or PS/DOPC small unilamellar vesicles were injected for 15 minutes at 5 μl/min over the second flow cell. First flow cell was coated with DOPC and served as a reference surface. Loosely bound vesicles were washed away with two short pulses (15 s) of 10 mM NaOH at 30 μl/min followed by injection of 0.1 mg/ml bovine serum albumin for 3 minutes to block poorly-coated surface. Recombinant hTREM2-ECD or hTREM2-R74H-ECD proteins were diluted in PBS (0, 0.19, 0.56, 1.7, 5, and 15 μM) and injected over both flow cells for 60 seconds at 30 μl/min, and dissociation was monitored for additional 2 minutes. Between each measurement the lipids surface was regenerated by injection of 10 mM NaOH. Steady-state affinities were obtained by fitting the response at equilibrium against the concentration using Biacore™ T200 Evaluation Software v3.1

Substitutions are numbered along the chain they refer to. “Also recorded” adds a separate entry of the source.

As a reminder, the Kd is the equilibrium constant for the complex coming apart. A low value points to tighter binding.

For the compound `O=C(O)Cc1cccc(OCCCN(Cc2cccc(C(F)(F)F)c2Cl)CC(c2ccccc2)c2ccccc2)c1` [GW3965], the cholesterol levels result in test [1] (TREM2 KO iPSC microglia) was “not rescued”. In addition, the figures for the “cholesteryl ester (CE) accumulation” value in test [1] and in test [1] (listed as GW3695) were “rescued; also recorded: reduced” and “rescued the accumulation of all CE species measured”, respectively.
On to galactosylceramide [GalCer], for which the “binding to and signaling via TREM2 (overall conclusion)” value (shortened to “binding to and signaling via TREM2”) in test [2] was “did not appear to bind and signal via TREM2”.
The same measure, in the same setting: the value for phosphatidylethanolamine [PE] was “did not appear to bind and signal via TREM2”.
Consider phosphatidylinositol [PI], for which, in test [2], the “binding to and signaling via TREM2” value was “did not appear to bind and signal via TREM2”; the pSYK levels result was “significantly increased pSYK levels”.
Take phosphatidylserine [PS]: the “pSYK levels, titration” value in test [3] is “dose-dependent increases in pSYK levels”. Further, in test [4], the “Response Units at the highest analyte concentration” value (“Response Units” below) is given as 631 RU. In test [5], the “Response Units” value came to 267 RU, the Kd was 14 µM and the “faster off-rate of R47H variant vs hTREM2” value was 2.4 fold.
For the compound sphingomyelin [SM], in test [2], the “binding to and signaling via TREM2” value was “did not appear to bind and signal via TREM2”.
For sulfatide, in test [3] (3 μM recombinant TREM2-ECD), the “pSYK increase with recombinant TREM2 ECD competition” value was “reduced to baseline levels”. The “pSYK levels, titration” value in test [3] is recorded as “dose-dependent increases in pSYK levels”. Besides, the “Response Units” value in test [4] was 704 RU. This compound also returned a Kd in test [4] (30% test lipid/70% PC liposomes on L1 chip, 25° C., steady-state) of 6.8 µM. Further, in test [2], the “binding to and signaling via TREM2” value is “binds and signals via TREM2”; the pSYK levels result was “significantly increased pSYK levels”. Besides, in test [5], the “Response Units” value was 191 RU, the Kd was determined as 20 µM and the “faster off-rate of R47H variant vs hTREM2” value is listed as 5 fold.

Values taken from patent publication US20230132366A9, “METHODS FOR TREATING DYSREGULATED LIPID METABOLISM” (DENALI THERAPEUTICS INC., priority 2018, published 2023).
